Here are results for three molecules from patent US9775920B2, “Use of N-(4-isopropylphenyl)-5-amino-isoindoline” (Institute of Nuclear Energy Research, Atomic Energy …, priority 2015, dated 2017).

Entries after “also recorded” stand apart in the source; their conditions may differ.

One assay deals with β-amyloid. The settings on record: stated as known; cited from earlier work.
The target of the next assay is Aβ40 (Homo sapiens, UniProt P05067). The assay is described as follows: Competition with fluorescent dye ThT for binding to Aβ40 (in-vitro assay). To be noted: FIG. 1. On the procedure: Competition for fluorescent binding to Aβ40: the inhibition test of competition binding to amyloid was carried out, in which 2 μM Aβ40, 1 μM amyloid fluorescent dye ThT, and 0.47 nM, 0.94 nM, 4.7 nM, 9.4 nM, 47 nM, 94 nM, 470 nM, 940 nM, 4700 nM and 9400 nM of standard compounds (PiB and BTA-1) and the compound of the present invention as the competing compounds were used. The reaction was carried out for 2 hrs at room temperature, which was excited by using Anthos Zenyth 3100 at an excitation wavelength of 485 nm, and then emitted a florescence of 535 nm. The binding rate of ThT to amyloid was set to 1 where no compound of the present invention was added to compete with ThT for binding. The PiB and BTA-1 were used as positive controls, and the binding rate of each concentration of compound was calculated according to the formula: binding rate=(fluorescence intensity with the compound of the present invention/fluorescence intensity without the compound of the present invention). The result is shown in FIG. 1, in which the horizontal axis is the concentration of the competing compound, and the longitudinal axis is the binding rate of ThT.
Chain of Aβ40 (P05067 672-711 limits assumed): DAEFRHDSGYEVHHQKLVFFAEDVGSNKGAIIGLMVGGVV

As to `CNc1ccc(-c2nc3ccccc3s2)cc1` [BTA-1], the “affinity to β-amyloid” value in the assay on β-amyloid is given as “high affinity”.
For `[11CH3]Nc1ccc(-c2nc3ccc(O)cc3s2)cc1` [PiB], the “affinity to β-amyloid” value in the assay with β-amyloid was “high affinity”.
As for `CC(C)c1ccc(N2Cc3ccc(N)cc3C2)cc1` [the compound of the present invention, N-(4-isopropylphenyl)-5-amino-isoindoline], on Aβ40 (2 μM Aβ40, 1 μM ThT, 0.47 nM to 9400 nM competing compound, 2 hrs at room temperature, excitation 485 nm, emission 535 nm), the “binding rate of ThT to amyloid in competition with the compound” value is reported as “can compete with the β-amyloid dye thioflavin T (ThT) for binding to amyloid; also recorded: decrease gradually with the increasing concentration of the compound of the present invention”. Also, the “ThT binding rate compared with PiB and BTA-1” value on Aβ40 (at a low concentration of competing compound) is “comparable to that of other known compounds at a low concentration”.
